Among the data in ChEMBL document CHEMBL5614465, “Discovery of the First Clinical Protein Degrader for the Treatment of Autoimmune Indications: Orally Bioavailable and Selective IRAK4 Degrader KT-474” (J Med Chem, 2024) are DC50 values, retold here.

This test deals with Protein cereblon/Interleukin-1 receptor-associated kinase 4 (Homo sapiens, UniProt Q9NWZ3+Q96SW2). Put plainly: PROTAC activity at CRBN/IRAK4 in human HEK293T cells assessed as induction of IRAK4 degradation measured after 24 hrs by immunoblotting analysis. Type of test: cell-based. (In general: Immunoblotting shows a protein as a band on a membrane.)
Sequence of Protein cereblon/Interleukin-1 receptor-associated kinase 4 (Q9NWZ3 whole entry): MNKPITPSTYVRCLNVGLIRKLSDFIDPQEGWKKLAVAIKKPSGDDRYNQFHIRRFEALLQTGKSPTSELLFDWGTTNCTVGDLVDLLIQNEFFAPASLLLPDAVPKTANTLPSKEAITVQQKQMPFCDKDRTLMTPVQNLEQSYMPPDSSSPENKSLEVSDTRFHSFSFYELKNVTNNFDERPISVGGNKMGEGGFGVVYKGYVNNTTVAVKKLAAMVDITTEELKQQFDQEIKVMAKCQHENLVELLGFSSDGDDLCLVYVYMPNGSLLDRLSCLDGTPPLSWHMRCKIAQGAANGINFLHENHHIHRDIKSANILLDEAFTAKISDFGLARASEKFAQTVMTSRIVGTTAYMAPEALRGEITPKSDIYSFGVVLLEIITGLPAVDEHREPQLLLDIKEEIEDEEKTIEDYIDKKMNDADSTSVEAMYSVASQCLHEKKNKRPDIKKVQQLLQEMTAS
Sequence of Protein cereblon/Interleukin-1 receptor-associated kinase 4 (Q96SW2 whole entry): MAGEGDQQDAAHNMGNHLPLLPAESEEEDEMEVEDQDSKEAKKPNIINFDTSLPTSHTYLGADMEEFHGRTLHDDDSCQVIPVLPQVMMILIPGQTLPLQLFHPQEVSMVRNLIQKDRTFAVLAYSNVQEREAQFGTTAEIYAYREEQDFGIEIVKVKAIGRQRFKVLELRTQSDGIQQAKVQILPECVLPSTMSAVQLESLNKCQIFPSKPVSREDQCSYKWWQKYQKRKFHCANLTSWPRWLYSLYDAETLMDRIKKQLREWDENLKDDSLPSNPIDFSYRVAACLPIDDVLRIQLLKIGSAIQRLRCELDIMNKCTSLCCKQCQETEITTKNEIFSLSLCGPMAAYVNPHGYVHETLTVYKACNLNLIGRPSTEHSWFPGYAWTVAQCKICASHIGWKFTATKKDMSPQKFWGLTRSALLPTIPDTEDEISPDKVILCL

In general, DC50 refers to the midpoint of the concentration-degradation curve. As for `CC(C)Nc1cc(-n2ccc3cc(C#N)cnc32)ncc1C(=O)N[C@H]1CC[C@H](C(=O)NCCOCCNC(=O)COc2cccc3c2C(=O)N(C2CCC(=O)NC2=O)C3=O)CC1` (stereo partly specified), the 50% degradation concentration (DC50) is 405 nM.
